Measured values published in patent publication US9334246B2, “Substituted triazines for malaria treatment and chemoprophylaxis” (The United States of America, as represented by the …, priority 2013, dated 2016).
In brackets after ≈: the same amount, converted by molar mass.

Legend:
[1] = test system: P. falciparum C235; assay: Malaria SYBR Green Fluorescence Assay, C235 strain; type: cell-based, Plasmodium falciparum
[2] = test system: P. falciparum D6; assay: Malaria SYBR Green Fluorescence Assay, D6 strain; type: cell-based, Plasmodium falciparum
[3] = target: hERG potassium ion channel (Homo sapiens, UniProt Q12809); assay: hERG patch clamp assay (% inhibition at 10 μM)
[4] = test system: P. falciparum W2; assay: Malaria SYBR Green Fluorescence Assay, W2 strain; type: cell-based, Plasmodium falciparum
[5] = % inhibition at 10 μM, patch clamp
[6] = Plasmodium falciparum, SYBR Green Assay

Sequence of hERG potassium ion channel (Q12809 whole entry): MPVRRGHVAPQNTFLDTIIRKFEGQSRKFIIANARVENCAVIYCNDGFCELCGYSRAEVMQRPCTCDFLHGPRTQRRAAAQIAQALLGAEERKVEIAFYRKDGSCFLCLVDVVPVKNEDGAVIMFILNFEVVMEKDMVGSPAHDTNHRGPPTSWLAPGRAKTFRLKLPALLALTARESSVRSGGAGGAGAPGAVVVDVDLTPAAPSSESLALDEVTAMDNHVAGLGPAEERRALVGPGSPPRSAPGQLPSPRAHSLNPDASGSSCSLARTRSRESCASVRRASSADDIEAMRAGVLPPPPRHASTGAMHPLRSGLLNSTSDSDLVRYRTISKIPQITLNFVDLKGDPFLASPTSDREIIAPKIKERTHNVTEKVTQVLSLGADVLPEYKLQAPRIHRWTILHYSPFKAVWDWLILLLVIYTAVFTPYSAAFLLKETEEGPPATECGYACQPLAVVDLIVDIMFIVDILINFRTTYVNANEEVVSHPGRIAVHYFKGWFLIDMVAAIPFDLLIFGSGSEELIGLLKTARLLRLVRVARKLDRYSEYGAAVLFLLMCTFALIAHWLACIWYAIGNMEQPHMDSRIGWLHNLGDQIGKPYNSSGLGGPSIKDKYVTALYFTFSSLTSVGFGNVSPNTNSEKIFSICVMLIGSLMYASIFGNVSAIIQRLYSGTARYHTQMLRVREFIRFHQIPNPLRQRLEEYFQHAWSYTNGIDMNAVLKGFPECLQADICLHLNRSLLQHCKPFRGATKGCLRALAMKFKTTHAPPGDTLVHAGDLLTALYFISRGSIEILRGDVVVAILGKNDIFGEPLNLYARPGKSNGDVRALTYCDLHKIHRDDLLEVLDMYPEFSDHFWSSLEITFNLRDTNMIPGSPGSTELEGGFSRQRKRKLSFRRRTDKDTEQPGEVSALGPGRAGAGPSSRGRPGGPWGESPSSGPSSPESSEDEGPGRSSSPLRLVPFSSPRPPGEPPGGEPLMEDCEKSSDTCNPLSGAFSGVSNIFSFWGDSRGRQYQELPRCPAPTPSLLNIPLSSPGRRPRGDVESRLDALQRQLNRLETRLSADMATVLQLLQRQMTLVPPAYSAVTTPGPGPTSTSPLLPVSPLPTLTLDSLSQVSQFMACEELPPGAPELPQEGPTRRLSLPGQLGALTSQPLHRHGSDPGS

Compound | C235 ([1]; SYBR Green Assay) | D6 ([2]; SYBR Green Assay) | W2 ([4]; SYBR Green Assay) | C235 (SYBR Green Assay IC50) [1] | D6 (SYBR Green Assay IC50) [2] | W2 (SYBR Green Assay IC50) [4] | also measured
CN1CCN(CC1)c2ccc(Nc3nc(NCCN4CCCC4)nc(n3)C(Cl)(Cl)Cl)cc2 [Compound 733] | 87 ng/mL | 117 ng/mL | 36 ng/mL | – | – | – | hERG ([3]; hERG activity as % inhibition): 55%
Clc1ccc(-c2nc(N3CCNCC3)nc(C(Cl)(Cl)Cl)n2)cc1Cl [Cmpd 25] | – | – | – | – | – | – | hERG [3, 5]: 10%
CN(C)C1CCN(c2nc(-c3ccc(Cl)c(Cl)c3)nc(C(Cl)(Cl)Cl)n2)C1 (stereo not drawn) [Cmpd 20] | – | – | – | – | – | – | hERG [3, 5]: 50%
Clc1ccc(-c2nc(N3CCOCC3)nc(C(Cl)(Cl)Cl)n2)cc1 [Cmpd 31] | – | – | – | – | – | – | hERG [3, 5]: 12%
CN1CCN(c2nc(-c3ccc(Cl)c(Cl)c3)nc(C(Cl)(Cl)Cl)n2)CC1 [Cmpd 22] | – | – | – | – | – | – | hERG [3, 5]: 33%
Clc1ccc(-c2nc(NCCc3ccncc3)nc(C(Cl)(Cl)Cl)n2)cc1 [Cmpd 139] | 320 ng/mL | 202 ng/mL | 81 ng/mL | – | – | – | –
Cc1ccc(-c2nc(NCC3(N)CC3)nc(C(Cl)(Cl)Cl)n2)cc1 [Compound 681, CC1═CC═C(C═C1)C1═NC(NCC2(N)CC2)═NC(═N1)C(Cl)(Cl)Cl] | 750 ng/mL | 593 ng/mL | 328 ng/mL | – | – | – | –
COc1cccc(-c2nc(NCc3cccnc3)nc(C(Cl)(Cl)Cl)n2)c1 [Cmpd 155] | 614 ng/mL | 318 ng/mL | 145 ng/mL | – | – | – | –
COc1cccc(Cc2nc(N3CCCN(C)CC3)nc(C(Cl)(Cl)Cl)n2)c1 [Cmpd 269] | 627 ng/mL | 835 ng/mL | 286 ng/mL | – | – | – | –
Clc1cccc(-c2nc(NCCc3cnccn3)nc(C(Cl)(Cl)Cl)n2)c1 [Cmpd 472] | – | – | – | 0.244 µg/mL | 0.449 µg/mL | 0.051 µg/mL | –
COc1cc(OC)cc(-c2nc(N3CCCNCC3)nc(C(Cl)(Cl)Cl)n2)c1 [Cmpd 525] | – | – | – | 0.041 µg/mL | 0.043 µg/mL | 0.033 µg/mL | –
CCN(CC)CCNc1nc(Cc2cccc(OC)c2)nc(C(Cl)(Cl)Cl)n1 [Cmpd 243] | 128 ng/mL | 199 ng/mL | 123 ng/mL | – | – | – | –
COc1cc(OC)cc(-c2nc(NC3CC(C)(C)NC(C)(C)C3)nc(C(Cl)(Cl)Cl)n2)c1 [Cmpd 527] | – | – | – | 0.024 µg/mL | 0.026 µg/mL | 0.021 µg/mL | –
CCN1CCCC(Nc2nc(Cc3ccc(OC)cc3)nc(C(Cl)(Cl)Cl)n2)C1 (stereo not drawn) [Cmpd 86] | 991 ng/mL | 623 ng/mL | 600 ng/mL | – | – | – | –
CCN1CCCC(Nc2nc(-c3ccccc3OC)nc(C(Cl)(Cl)Cl)n2)C1 (stereo not drawn) [Cmpd 215] | 248 ng/mL | 426 ng/mL | 132 ng/mL | – | – | – | –
Clc1cc(Cl)cc(-c2nc(NCc3cccnc3)nc(C(Cl)(Cl)Cl)n2)c1 [Cmpd 209] | 112 ng/mL | 122 ng/mL | 67 ng/mL | – | – | – | –
CC1(C)C=Cc2cc(-c3nc(NCCc4cnccn4)nc(C(Cl)(Cl)Cl)n3)ccc2O1 [Cmpd 545] | – | – | – | 0.3 µg/mL | 0.338 µg/mL | 0.147 µg/mL | –
CC(C)N1CCC(CNc2nc(-c3cc(Cl)cc(Cl)c3)nc(C(Cl)(Cl)Cl)n2)CC1 [Cmpd 495] | – | – | – | 0.013 µg/mL | 0.036 µg/mL | 0.01 µg/mL | –
ClC(Cl)(Cl)c1nc(NCCc2ccncc2)nc(-c2ccc3ccccc3c2)n1 [Cmpd 230] | 212 ng/mL | 246 ng/mL | 59 ng/mL | – | – | – | –
CCN1CCC(CNc2nc(Cc3ccccc3OC)nc(C(Cl)(Cl)Cl)n2)CC1 [Cmpd 293] | 70 ng/mL | 48 ng/mL | 13 ng/mL | – | – | – | –
CN1CCC(CNc2nc(-c3ccc(C(Cl)(Cl)Cl)cc3)nc(C(Cl)(Cl)Cl)n2)CC1 [Cmpd 511] | – | – | – | 0.056 µg/mL | 0.077 µg/mL | 0.034 µg/mL | –
CCN(CC)CCNc1nc(-c2ccccc2-c2ccc(C)cc2)nc(C(Cl)(Cl)Cl)n1 [Cmpd 254] | 462 ng/mL | 632 ng/mL | 492 ng/mL | – | – | – | –
COc1ccccc1Cc1nc(NCC(C)(C)N)nc(C(Cl)(Cl)Cl)n1 [Cmpd 292] | 103 ng/mL | 77 ng/mL | 34 ng/mL | – | – | – | –
NC1(CNc2nc(Nc3ccc(OC(F)(F)F)cc3)nc(C(Cl)(Cl)Cl)n2)CCOCC1 [Cmpd 303] | 65 ng/mL | 43 ng/mL | 61 ng/mL | – | – | – | –
COc1ccc(-c2nc(NCCN3CCCC3)nc(C(Cl)(Cl)Cl)n2)c2ccccc12 [Cmpd 278] | 48 ng/mL | 35 ng/mL | 17 ng/mL | – | – | – | –

Compound | C235 ([1]; SYBR Green Assay) | D6 ([2]; SYBR Green Assay) | W2 ([4]; SYBR Green Assay) | C235 (SYBR Green Assay IC50) [1] | D6 (SYBR Green Assay IC50) [2] | W2 (SYBR Green Assay IC50) [4] | also measured
CSc1ccc(-c2nc(NCc3cccnc3)nc(C(Cl)(Cl)Cl)n2)cc1 [Cmpd 160] | 896 ng/mL | 789 ng/mL | 238 ng/mL | – | – | – | –
CC(C)CN1CCC(Nc2nc(-c3ccc(Cl)cc3)nc(C(Cl)(Cl)Cl)n2)CC1 [Compound 693, CC(C)CN1CCC(CC1)NC1═NC(═NC(═N1)C(Cl)(Cl)Cl)C1═CC═C(Cl)C═C1] | 69 ng/mL | 37 ng/mL | 29 ng/mL | – | – | – | –
COc1ccc(Nc2nc(NCCC3CCCN3C)nc(C(Cl)(Cl)Cl)n2)cn1 (stereo not drawn) [Cmpd 341] | 10 ng/mL | 7 ng/mL | 5 ng/mL | – | – | – | –
CSc1ccc(-c2nc(NCC3CCN(C)CC3)nc(C(Cl)(Cl)Cl)n2)cc1 [Cmpd 509] | – | – | – | 0.167 µg/mL | 0.294 µg/mL | 0.098 µg/mL | –
CSc1ccc(-c2nc(N3CCN(CCO)CC3)nc(C(Cl)(Cl)Cl)n2)cc1 [Cmpd 309] | 438 ng/mL | 188 ng/mL | 122 ng/mL | – | – | – | –
NC1CCCCC1Nc1nc(-c2ccc(Cl)c(Cl)c2)nc(C(Cl)(Cl)Cl)n1 (stereo not drawn) [Compound 740, NC1CCCCC1NC1═NC(═NC(═N1)C1═CC(Cl)═C(Cl)C═Cl)C(Cl)(Cl)Cl] | 23 ng/mL | 38 ng/mL | 11 ng/mL | – | – | – | –
NC1CCN(c2nc(-c3cccc(Cl)c3)nc(C(Cl)(Cl)Cl)n2)CC1 [Compound 633, NC1CCN(CC1)C1═NC(═NC(═N1)C(Cl)(Cl)Cl)C1═CC(Cl)═CC═C1] | – | – | – | 0.01 µg/mL | 0.01 µg/mL | 0.008 µg/mL | –
COc1ncccc1Nc1nc(N2CCCNCC2)nc(C(Cl)(Cl)Cl)n1 [Cmpd 378] | – | – | – | 0.098 µg/mL | 0.05 µg/mL | 0.059 µg/mL | –
COC1═CC(═CC═C1)C1═NC(═NC(═N1)C(Cl)(Cl)Cl)N1CCC(N)CC1 [Compound 629] | – | – | – | 0.019 µg/mL | 0.021 µg/mL | 0.015 µg/mL | –
CCN1CCCC(Nc2nc(-c3ccc(N4CCCC4)cc3)nc(C(Cl)(Cl)Cl)n2)C1 (stereo not drawn) [Cmpd 429] | – | – | – | 0.912 µg/mL | 0.791 µg/mL | 0.607 µg/mL | –
CN(Cc1ccccc1-c1cccnc1)c1nc(-c2ccc(S(C)(=O)=O)cc2)nc(C(Cl)(Cl)Cl)n1 [Cmpd 129] | 233 ng/mL | 170 ng/mL | 102 ng/mL | – | – | – | –
CN1CCC(Nc2nc(-c3ccc(C(Cl)(Cl)Cl)cc3)nc(C(Cl)(Cl)Cl)n2)CC1 [Cmpd 61] | 556 ng/mL | 570 ng/mL | 376 ng/mL | – | – | – | –
CC(C)N1CCC(CNc2nc(-c3ccc(C(C)(C)C)cc3)nc(C(Cl)(Cl)Cl)n2)CC1 [Cmpd 488] | – | – | – | 0.02 µg/mL | 0.027 µg/mL | 0.016 µg/mL | –
CS(═O)(═O)c1ccc(cc1)c2nc(Nc3ccc(cc3)n4cccn4)nc(n2)C(Cl)(Cl)Cl [Compound 689] | 171 ng/mL | 94 ng/mL | 58 ng/mL | – | – | – | –
COc1ccc(Nc2nc(NCC(C)(C)N)nc(C(Cl)(Cl)Cl)n2)cn1 [Cmpd 403] | – | – | – | 0.203 µg/mL | 0.134 µg/mL | 0.078 µg/mL | –
CCN1CCC(CNc2nc(-c3ccc(Cl)c(Cl)c3)nc(C(Cl)(Cl)Cl)n2)CC1 [Cmpd 257] | 29 ng/mL | 54 ng/mL | 45 ng/mL | – | – | – | –
NC1(CNc2nc(-c3ccc(Cl)cc3)nc(C(Cl)(Cl)Cl)n2)CCOCC1 [Cmpd 333] | 40 ng/mL | 26 ng/mL | 15 ng/mL | – | – | – | –
CC1(C)CC(Nc2nc(-c3ccc(C(Cl)(Cl)Cl)cc3)nc(C(Cl)(Cl)Cl)n2)CC(C)(C)N1 [Cmpd 325] | 269 ng/mL | 123 ng/mL | 82 ng/mL | – | – | – | –
CC(C)N1CCC(CNc2nc(-c3cccc(C(F)(F)F)c3)nc(C(Cl)(Cl)Cl)n2)CC1 [Cmpd 489] | – | – | – | 0.01 µg/mL | 0.014 µg/mL | 0.008 µg/mL | –
CSc1ccc(-c2nc(NCCN3CCCC3)nc(C(Cl)(Cl)Cl)n2)cc1 [Cmpd 47] | – | – | – | – | – | – | hERG [3, 5]: 95%
COc1ncccc1Nc1nc(N2CCN(C)CC2)nc(C(Cl)(Cl)Cl)n1 [Cmpd 353] | – | – | – | 0.211 µg/mL | 0.101 µg/mL | 0.08 µg/mL | –
Oc1ccc(Nc2nc(NCCN3CCCC3)nc(C(Cl)(Cl)Cl)n2)cc1 [Compound 745, 4-((4-((2-(pyrrolidin-1-yl)ethyl)amino)-6-(trichloromethyl)-1,3,5-triazin-2-yl)amino)phenol] | – | – | – | – | – | – | IC50 [1, 6]: 0.389 µg/mL (≈ 0.931 µM); IC50 [2, 6]: 0.144 µg/mL (≈ 0.345 µM); IC50 [4, 6]: 0.08 µg/mL (≈ 0.192 µM)
COc1ccc(Nc2nc(NC3CCN(C)CC3)nc(C(Cl)(Cl)Cl)n2)cn1 [Cmpd 349] | 296 ng/mL | 124 ng/mL | 129 ng/mL | – | – | – | –
CC(C)(C)c1ccc(-c2nc(N3CCCNCC3)nc(C(Cl)(Cl)Cl)n2)cc1 [Cmpd 115] | 360 ng/mL | 357 ng/mL | 242 ng/mL | – | – | – | –
